Test results: ChEMBL document CHEMBL5257097, “An Isomer of Galidesivir That Potently Inhibits Influenza Viruses and Members of the Bunyavirales Order” (ACS Med Chem Lett, 2023)

How the values were obtained:
[1] = tested on: Middle East respiratory syndrome-related coronavirus; assay: Antiviral activity against MERS-CoV infected in African green monkey Vero 76 cells assessed as reduction in virus-induced cytopathic effect measured after 15 to 30 mins by neutral red dye based analysis; assay type: functional, organism-based
[2] = (§1) Selectivity index, ratio of CC50 for cytotoxicity against African green monkey Vero 76 cells infected with Rift valley fever virus assessed as reduction in cell viability by visual analysis to EC50 for antiviral activity against Rift valley fever virus infected in African green monkey Vero 76 cells assessed as reduction in virus-induced cytopathic effect by visual analysis; assay type: toxicity, cell-based; settings: read-out: Ratio CC50/EC50
Huh-7 [3] = assay: Cytotoxicity against human Huh-7 cells infected with DENV-2 assessed as reduction in cell viability by visual analysis; assay type: functional
[4] = tested on: Middle East respiratory syndrome-related coronavirus; assay: Antiviral activity against MERS-CoV infected in African green monkey Vero 76 cells assessed as reduction in virus-induced cytopathic effect measured after 15 to 30 mins by visual analysis; assay type: functional, organism-based
[5] = (§2) Selectivity index, ratio of CC50 for cytotoxicity against dog MDCK cells infected with Influenza A virus H1N1 assessed as reduction in cell viability by visual analysis to EC50 for antiviral activity against Influenza A virus H1N1 infected in dog MDCK cells assessed as reduction in virus-induced cytopathic effect by visual analysis; assay type: toxicity, cell-based; settings: read-out: Ratio CC50/EC50
[6] = Cytotoxicity against African green monkey Vero cells infected with Tacaribe virus assessed as reduction in cell viability by neutral red dye based analysis; assay type: toxicity; settings: chlorocebus sabaeus
[7] = Cytotoxicity against African green monkey Vero 76 cells infected with MERS-CoV assessed as reduction in cell viability by visual analysis; assay type: toxicity, cell-based; settings: chlorocebus sabaeus
Zika virus [8] = assay: Antiviral activity against Zika virus infected in African green monkey Vero 76 cells assessed as reduction in virus-induced cytopathic effect measured after 15 to 30 mins by visual analysis; assay type: functional, organism-based
[9] = Cytotoxicity against dog MDCK cells infected with Influenza A virus H1N1 assessed as reduction in cell viability by neutral red dye based assay; assay type: toxicity, Canis lupus familiaris
Rift Valley fever virus [10] = assay: Antiviral activity against Rift valley fever virus infected in African green monkey Vero 76 cells assessed as reduction in virus-induced cytopathic effect measured after 15 to 30 mins by neutral red dye based analysis; assay type: functional, organism-based
Influenza A virus [11] = assay: Antiviral activity against Influenza A virus H1N1 infected in dog MDCK cells assessed as reduction in virus-induced cytopathic effect measured after 15 to 30 mins by neutral red based analysis; assay type: functional, organism-based
Huh-7 [12] = assay: Cytotoxicity against human Huh-7 cells infected with Yellow fever virus assessed as reduction in cell viability by neutral red dye based assay; assay type: functional
[13] = as §1, with “Punta Toro” for “Rift valley fever”, “viral replication” for “virus-induced cytopathic effect”; assay type: toxicity, cell-based; settings: read-out: Ratio CC50/EC50
[14] = as §2, with “neutral red dye based” for “visual”; assay type: toxicity; settings: read-out: Ratio CC50/EC50
[15] = Cytotoxicity against African green monkey Vero 76 cells infected with Rift valley fever virus assessed as reduction in cell viability by visual analysis; assay type: toxicity, cell-based; settings: chlorocebus sabaeus
[16] = Cytotoxicity against African green monkey Vero 76 cells infected with Zika virus assessed as reduction in cell viability by neutral red dye based assay; assay type: toxicity; settings: chlorocebus sabaeus
[17] = Cytotoxicity against African green monkey Vero 76 cells infected with MERS-CoV assessed as reduction in cell viability by neutral red dye based analysis; assay type: toxicity; settings: chlorocebus sabaeus
[18] = Cytotoxicity against dog MDCK cells infected with Influenza A virus H1N1 assessed as reduction in cell viability by visual analysis; assay type: toxicity, cell-based, Canis lupus familiaris
[19] = tested on: Severe fever with thrombocytopenia syndrome virus; assay: Antiviral activity against Severe fever with thrombocytopenia syndrome virus infected in African green monkey Vero E6 cells assessed as reduction in viral yield measured for 3 days; assay type: functional; settings: Vero C1008, 72 h, time 3 day
[20] = Selectivity index, ratio of CC50 for cytotoxicity against African green monkey Vero 76 cells infected with Zika virus assessed as reduction in cell viability by neutral red dye based analysis to EC50 for antiviral activity against Zika virus infected in African green monkey Vero 76 cells assessed as reduction in virus-induced cytopathic effect by neutral red based spectrophotometric analysis; assay type: toxicity; settings: read-out: Ratio CC50/EC50
[21] = as §2, with “human Huh-7” for “dog MDCK”, “DENV-2” for “Influenza A virus H1N1”, “neutral red” for “visual”; assay type: toxicity, cell-based; settings: read-out: Ratio CC50/EC50
[22] = Cytotoxicity against African green monkey Vero 76 cells infected with Zika virus assessed as reduction in cell viability by visual analysis; assay type: toxicity, cell-based; settings: chlorocebus sabaeus
dengue virus type 2 [23] = assay: Antiviral activity against DENV-2 infected in human Huh-7 cells assessed as reduction in virus-induced cytopathic effect measured after 15 to 30 mins by neutral red based analysis; assay type: functional, organism-based
Zika virus [24] = assay: Antiviral activity against Zika virus infected in African green monkey Vero 76 cells assessed as reduction in virus-induced cytopathic effect measured after 15 to 30 mins by neutral red based spectrophotometric analysis; assay type: functional, organism-based
[25] = Cytotoxicity against African green monkey Vero 76 cells infected with Rift valley fever virus assessed as reduction in cell viability by neutral red dye based analysis; assay type: toxicity; settings: chlorocebus sabaeus
[26] = (§3) Selectivity index, ratio of CC50 for cytotoxicity against human Huh-7 cells infected with Yellow fever virus assessed as reduction in cell viability by neutral red dye based assay to EC50 for antiviral activity against Yellow fever virus infected in human Huh-7 cells assessed as reduction in virus-induced cytopathic effect by neutral red based analysis; assay type: toxicity; settings: read-out: Ratio CC50/EC50
[27] = as §2, with “human Huh-7” for “dog MDCK”, “DENV-2” for “Influenza A virus H1N1”; assay type: toxicity, cell-based; settings: read-out: Ratio CC50/EC50
[28] = Selectivity index, ratio of CC50 for cytotoxicity against African green monkey Vero 76 cells infected with Rift valley fever virus assessed as reduction in cell viability by neutral red dye based analysis to EC50 for antiviral activity against Rift valley fever virus infected in African green monkey Vero 76 cells assessed as reduction in virus-induced cytopathic effect by neutral red dye based analysis; assay type: toxicity; settings: read-out: Ratio CC50/EC50
Huh-7 [29] = assay: Cytotoxicity against human Huh-7 cells infected with Yellow fever virus assessed as reduction in cell viability by visual assay; assay type: functional
dengue virus type 2 [30] = assay: Antiviral activity against DENV-2 infected in human Huh-7 cells assessed as reduction in virus-induced cytopathic effect measured after 15 to 30 mins by visual analysis; assay type: functional, organism-based
Huh-7 [31] = assay: Cytotoxicity against human Huh-7 cells infected with DENV-2 assessed as reduction in cell viability by neutral red dye based assay; assay type: functional
Rift Valley fever virus [32] = assay: Antiviral activity against Rift valley fever virus infected in African green monkey Vero 76 cells assessed as reduction in virus-induced cytopathic effect measured after 15 to 30 mins by visual analysis; assay type: functional, organism-based
[33] = as §3, with “visual analysis” for “neutral red dye based assay”, “visual” for “neutral red based”; assay type: toxicity, cell-based; settings: read-out: Ratio CC50/EC50
Yellow fever virus [34] = assay: Antiviral activity against Yellow fever virus infected in human Huh-7 cells assessed as reduction in virus-induced cytopathic effect measured after 15 to 30 mins by visual analysis; assay type: functional, organism-based; settings: Yellow fever virus, Huh-7; read-out: EC50
Yellow fever virus [35] = assay: Antiviral activity against Yellow fever virus infected in human Huh-7 cells assessed as reduction in virus-induced cytopathic effect measured after 15 to 30 mins by neutral red based analysis; assay type: functional, organism-based
[36] = Selectivity index, ratio of CC50 for cytotoxicity against African green monkey Vero 76 infected with Zika virus assessed as reduction in cell viability by visual analysis to EC50 for antiviral activity against Zika virus infected in African green monkey Vero 76 cells assessed as reduction in virus-induced cytopathic effect by visual analysis; assay type: toxicity, cell-based; settings: Vero 76 cells infected with Zika virus, read-out: Ratio CC50/EC50
Influenza A virus [37] = assay: Antiviral activity against Influenza A virus H1N1 infected in dog MDCK cells assessed as reduction in virus-induced cytopathic effect measured after 15 to 30 mins by visual analysis; assay type: functional, organism-based
dengue virus type 2 [38] = assay: Antiviral activity against DENV-2 infected in African green monkey Vero cells assessed as reduction in virus-induced cytopathic effect measured after 15 to 30 mins by visual analysis; assay type: functional, organism-based
[39] = tested on: Middle East respiratory syndrome-related coronavirus; assay: Antiviral activity against MERS-CoV infected in vervet monkey MA-104 cells assessed as reduction in virus-induced cytopathic effect measured after 15 to 30 mins by neutral red dye based assay; assay type: functional, organism-based; settings: MA104

Nc1ncnn2c([C@@H]3N[C@H](CO)[C@@H](O)[C@H]3O)ccc12
EC50 [1]: 32 µM
selectivity ratio [2]: > 100
CC50 (Huh-7 [3]): > 100 µM
EC50 [4]: 0.32 µM
selectivity ratio [5]: 57
CC50 [6]: 6.6 µM
CC50 [7]: 10 µM
EC50 (Zika virus [8]): 0.32 µM
CC50 [9]: 3 µM
EC50 (Rift Valley fever virus [10]): < 0.1 µM
EC50 (Influenza A virus [11]): 0.28 µM
CC50 (Huh-7 [12]): 3.2 µM
selectivity ratio [13]: 41
selectivity ratio [14]: 23
CC50 [15]: 10 µM
CC50 [16]: 4.4 µM
CC50 [17]: 4.4 µM
CC50 [18]: 24 µM
EC90 [19]: 0.22 µM
selectivity ratio [20]: 12
selectivity ratio [21]: 2.9
CC50 [22]: 6.1 µM
EC50 (dengue virus type 2 [23]): 0.38 µM
EC50 (Zika virus [24]): 0.38 µM
CC50 [25]: 8.9 µM
selectivity ratio [26]: 8.6
selectivity ratio [27]: 10
selectivity ratio [28]: > 89
CC50 (Huh-7 [29]): 3.2 µM
EC50 (dengue virus type 2 [30]): 0.32 µM
CC50 (Huh-7 [31]): 2.9 µM
EC50 (Rift Valley fever virus [32]): < 0.1 µM
selectivity ratio [33]: 8.6
EC50 (Yellow fever virus [34]): 0.37 µM
EC50 (Yellow fever virus [35]): 0.5 µM
selectivity ratio [36]: 19
EC50 (Influenza A virus [37]): 0.42 µM

Nc1ncnc2c([C@@H]3N[C@H](CO)[C@@H](O)[C@H]3O)c[nH]c12 [GALIDESIVIR]
EC50 [1]: > 100 µM
selectivity ratio [2]: > 4.3
CC50 (Huh-7 [3]): > 100 µM
EC50 [4]: > 100 µM
selectivity ratio [5]: > 28
CC50 [7]: > 100 µM
EC50 (Zika virus [8]): 12 µM
CC50 [9]: > 100 µM
EC50 (Rift Valley fever virus [10]): 27 µM
EC50 (dengue virus type 2 [38]): 4.2 µM
EC50 (Influenza A virus [11]): 3.3 µM
CC50 (Huh-7 [12]): > 100 µM
selectivity ratio [14]: > 30
CC50 [15]: > 100 µM
CC50 [16]: > 100 µM
CC50 [17]: > 100 µM
CC50 [18]: > 100 µM
selectivity ratio [20]: > 3
selectivity ratio [21]: > 100
CC50 [22]: > 100 µM
EC50 (dengue virus type 2 [23]): 16 µM
EC50 (Zika virus [24]): 33 µM
EC50 [39]: 36 µM
CC50 [25]: > 100 µM
selectivity ratio [26]: > 5.6
selectivity ratio [27]: > 7.7
selectivity ratio [28]: > 3.7
CC50 (Huh-7 [29]): > 100 µM
EC50 (dengue virus type 2 [30]): 13 µM
CC50 (Huh-7 [31]): > 100 µM
EC50 (Rift Valley fever virus [32]): 23 µM
selectivity ratio [33]: > 3.6
EC50 (Yellow fever virus [34]): > 100 µM
EC50 (Yellow fever virus [35]): 18 µM
selectivity ratio [36]: > 8.3
EC50 (Influenza A virus [37]): 3.6 µM
